We go through 13 compounds from patent US5863913A, “Aromatic compound and pharmaceutical composition” (Kureha Chemical Industry Co., Ltd., priority 1996, dated 1999).

For this experiment, the system named is kidney disease model rats. As to the kind of experiment: Renal function indicatory value in kidney disease model rats. The class given is in vivo, Sprague-Dawley female rats. To be noted: 20 mg/kg/day with drinking water, six weeks; for Creatinine clearance: 24 hours urine, control 0.22; for Creatinine / Blood urea nitrogen: serum; for Creatinine: control 2.0; for Blood urea nitrogen: control 100. The procedure:
The kidney disease model rats were prepared by a ligature of branches of renal artery in accordance with a conventional method. Namely, the left hilum renalis of Sprague-Dawley female rats was exposed under anesthesia, and one of four secondary branches of the renal artery was left unligated, while the remaining three branches were ligated, respectively. After a week, the hilum renalis (artery, vein, and ureter) of the right kidney were further ligated to thereby prepare rats whose renal function was lowered to approximately 1/8 of the normal function. Each group consisted of eight rats. The drugs to be tested (20 mg/kg) were administered to each administering group, and only water was administered to a control group. Two days after the administration, the systolic blood pressure was measured by the tail cuff method using a blood pressure measuring apparatus (UR5000; Ueda).
The rats in each group were allowed to freely take up food. […] To the rats in the control group, only water was administered every day. After six weeks, 0.2 ml of blood was collected from the carotid artery of the rats under anesthesia, and centrifuged to obtain serum. Using 25 μl of the serum, the serum creatinine (Scr) was measured by a creatinine analytical instrument (Beckman). Using 10 μl of the serum, the blood urea nitrogen (BUN) was measured by a BUN analytical instrument (Beckman). The creatinine clearance was evaluated as follows:
After the serum creatinine measurement, rats were placed in urinary metabolic cages for 24 hours to collect urine. A urinary creatine concentration (Ucr) was measured by a creatinine analytical instrument, and a total volume of urination (Uvol) was also measured. The creatinine clearance (CCr) was calculated by the following formula: [formula]

For the compound `CCCCC(=O)N(Cc1ccc(C(=O)OCCN2CCOCC2)cc1)c1cc(C(=O)N2CCOCC2)ccc1C(C)C` [Compound No. 9, 3-N-[[[4-(2'-morpholinoethoxycarbonyl)phenyl]methyl]valeramido]-i-propylbenzoic acid morpholide], the Creatinine clearance was determined as 0.31 mL/min, the Creatinine was 1.6 mg/dL and the Blood urea nitrogen worked out at 83 mg/dL.

In the case of `CCCCCCC(=O)N(Cc1ccc(C(=O)O)cc1)c1cc(C(=O)N2CCN(CCC)CC2)ccc1C(C)C` [Compound No. 20, 3-N-[[(4-carboxyphenyl)methyl]n-heptanamido]-4-i-propylbenzoic acid 4'-n-propylpiperazide], the Creatinine clearance is 0.32 mL/min, the Creatinine was 1.3 mg/dL and the Blood urea nitrogen is 75 mg/dL.

With `CCCCC(=O)N(Cc1ccc(C(=O)OCCN(C)C)cc1)c1cc(C(=O)N2CCOCC2)ccc1N(C)C` [Compound No. 1, 4-dimethylamino-3-N-[[[4-(2'-dimethylaminoethoxycarbonyl)phenyl]methyl]valeramido]benzoic acid morpholide], the Creatinine clearance was determined as 0.47 mL/min, the Creatinine was 1.2 mg/dL and the Blood urea nitrogen was 62 mg/dL.

`CCCCC(=O)N(Cc1ccc(C(=O)O)cc1)c1cc(C(=O)N2CCN(C)CC2)ccc1C(C)C` [Compound No. 15, 3-[[(4-carboxyphenyl)methyl]valeramido]-4-i-propylbenzoic acid 4'-methylpiperazide] came in with a Creatinine clearance of 0.26 mL/min, a Creatinine of 1.8 mg/dL and a Blood urea nitrogen of 90 mg/dL.

Compound `CCCCCCC(=O)N(Cc1ccc(C(=O)O)cc1)c1cc(C(=O)N2CCN(CCC)CC2)ccc1N(C)C` [Compound No. 12, 4-dimethylamino-3-N-[[(4-carboxyphenyl)methyl]n-heptanamido]benzoic acid 4'-n-propyl piperazide] returned a Creatinine clearance of 0.35 mL/min, a Creatinine of 1.3 mg/dL and a Blood urea nitrogen of 80 mg/dL.

As for `CCCCC(=O)N(Cc1ccc(C(=O)OCCCN(C)C)cc1)c1cc(C(=O)N2CCOCC2)ccc1N(C)C` [Compound No. 2, 4-dimethylamino-3-N-[[[4-(3'-dimethylaminopropoxycarbonyl)phenyl]methyl]valeramido]benzoic acid morpholide], the Creatinine clearance is 0.33 mL/min, the Creatinine stood at 1.3 mg/dL and the Blood urea nitrogen is 78 mg/dL.

The compound `CCCCC(=O)N(Cc1ccc(C(=O)OCCCN)cc1)c1cc(C(=O)N2CCOCC2)ccc1N(C)C` [Compound No. 3, 3-N-[[[4-(3'-aminopropoxycarbonyl)phenyl]methyl]valeramido]-4-dimethylaminobenzoic acid morpholide] came in with a Creatinine clearance of 0.33 mL/min, a Creatinine of 1.3 mg/dL and a Blood urea nitrogen of 78 mg/dL.

Turning to `CCCCCCC(=O)N(Cc1ccc(C(=O)O)cc1)c1cc(C(=O)N2CCN(C)CC2)ccc1C(C)C` [Compound No. 18, 3-N-[[(4-carboxyphenyl)methyl]n-heptanamido]-4-i-propylbenzoic acid 4'-methylpiperazide], the Creatinine clearance was 0.32 mL/min, the Creatinine came to 1.4 mg/dL and the Blood urea nitrogen worked out at 76 mg/dL.

For the compound `CCCCC(=O)N(Cc1ccc(C(=O)OCCN(CC)CC)cc1)c1cc(C(=O)N2CCOCC2)ccc1C(C)C` [Compound No. 8, 3-N-[[[4-(2'-diethylaminoethoxycarbonyl)phenyl]methyl]valeramido]-4-i-propylbenzoic acid morpholide], the Creatinine clearance came to 0.35 mL/min, the Creatinine was determined as 1.5 mg/dL and the Blood urea nitrogen was determined as 78 mg/dL.

For `CCCCCCC(=O)N(Cc1ccc(C(=O)O)cc1)c1cc(C(=O)N2CCN(C)CC2)ccc1N(C)C` [Compound No. 13, 3-[[(4-carboxyohenyl)methyl]n-heptanamido]-4-dimethylaminobenzoic acid 4'-methylpiperazide], the Creatinine clearance worked out at 0.32 mL/min, the Creatinine amounted to 1.5 mg/dL and the Blood urea nitrogen was determined as 77 mg/dL.

`CCCCC(=O)N(Cc1ccc(C(=O)OCCN(C)C)cc1)c1cc(C(=O)N2CCOCC2)ccc1C(C)C` [Compound No. 6, 3-N-[[[4-(2'-dimethylaminoethoxycarbonyl)phenyl]methyl]valeramido]-4-i-propylbenzoic acid morpholide] gave a Creatinine clearance of 0.33 mL/min, a Creatinine of 1.3 mg/dL and a Blood urea nitrogen of 75 mg/dL.

In turn, `CCCCC(=O)N(Cc1ccc(C(=O)OCCCN(C)C)cc1)c1cc(C(=O)N2CCOCC2)ccc1C(C)C` [Compound No. 7, 3-N-[[[4-(3'-dimethylamino-1'-propoxycarbonyl)phenyl]methyl]valeramido]-4-i-propylbenzoic acid morpholide] displayed a Creatinine clearance of 0.32 mL/min, a Creatinine of 1.4 mg/dL and a Blood urea nitrogen of 76 mg/dL.

In turn, `CCCCC(=O)N(Cc1ccc(C(=O)O)cc1)c1cc(C(=O)N2CCN(CCC)CC2)ccc1C(C)C` [Compound No. 19, 3-[[(4-carboxyphenyl)methyl]valeramido]-4-i-propylbenzoic acid 4'-n-propylpiperazide] yielded a Creatinine clearance of 0.33 mL/min, a Creatinine of 1.3 mg/dL and a Blood urea nitrogen of 76 mg/dL.
